Data taken from BindingDB's records for doi:10.1021/jm960510x (University of Camerino, 1996).

Molecular target: Alpha-1B adrenergic receptor (Mesocricetus auratus) (UniProt P18841)
Assay: Compound was tested for binding affinity against cloned Alpha-1B adrenergic receptor from hamster smooth muscle using radioligand ([3H]prazosin) binding assay

Chain of Alpha-1B adrenergic receptor (Mesocricetus auratus) (P18841 whole entry, looked up): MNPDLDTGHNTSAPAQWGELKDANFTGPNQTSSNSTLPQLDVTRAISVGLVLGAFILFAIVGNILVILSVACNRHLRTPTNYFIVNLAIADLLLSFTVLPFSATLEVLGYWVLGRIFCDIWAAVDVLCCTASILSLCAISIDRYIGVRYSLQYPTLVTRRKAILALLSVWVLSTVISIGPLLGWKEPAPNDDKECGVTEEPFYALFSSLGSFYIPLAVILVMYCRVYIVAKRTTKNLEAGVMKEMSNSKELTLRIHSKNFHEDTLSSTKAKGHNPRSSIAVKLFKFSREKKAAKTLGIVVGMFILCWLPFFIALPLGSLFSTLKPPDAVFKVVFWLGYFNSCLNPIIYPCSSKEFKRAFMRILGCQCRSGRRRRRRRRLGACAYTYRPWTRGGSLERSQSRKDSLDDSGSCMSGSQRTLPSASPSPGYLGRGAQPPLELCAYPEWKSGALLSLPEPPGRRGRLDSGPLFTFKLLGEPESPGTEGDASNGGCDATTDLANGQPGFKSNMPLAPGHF

Ki	SMILES
0.692 nM	COc1cc2nc(N3CCN(C(=O)c4ccco4)[C@@H]4CCCC[C@@H]43)nc(N)c2cc1OC
0.589 nM	COc1cc2nc(N3CCN(C(=O)c4ccco4)C4CCCCC43)nc(N)c2cc1OC (stereo not drawn) [(Cyclazosin)[4-(4-Amino-6,7-dimethoxy-quinazolin-2-yl)-octahydro-quinoxalin-1-yl]-furan-2-yl-methanone]
0.309 nM	COc1cc2nc(N3CCN(C(=O)c4ccco4)[C@H]4CCCC[C@H]43)nc(N)c2cc1OC [CYCLAZOSIN]
